The values that follow come from patent US20260055097A9, “NRF2 PROTEIN DEGRADERS” (Ganymede Oncology, Inc., priority 2022, published 2026).

Each structure is given as a SMILES string. Like-named read-outs stand apart in the source and are kept apart here.

One experiment has as its target T1, Nrf2 (Homo sapiens, UniProt Q16236).
T1 sequence (Q16236 1-605): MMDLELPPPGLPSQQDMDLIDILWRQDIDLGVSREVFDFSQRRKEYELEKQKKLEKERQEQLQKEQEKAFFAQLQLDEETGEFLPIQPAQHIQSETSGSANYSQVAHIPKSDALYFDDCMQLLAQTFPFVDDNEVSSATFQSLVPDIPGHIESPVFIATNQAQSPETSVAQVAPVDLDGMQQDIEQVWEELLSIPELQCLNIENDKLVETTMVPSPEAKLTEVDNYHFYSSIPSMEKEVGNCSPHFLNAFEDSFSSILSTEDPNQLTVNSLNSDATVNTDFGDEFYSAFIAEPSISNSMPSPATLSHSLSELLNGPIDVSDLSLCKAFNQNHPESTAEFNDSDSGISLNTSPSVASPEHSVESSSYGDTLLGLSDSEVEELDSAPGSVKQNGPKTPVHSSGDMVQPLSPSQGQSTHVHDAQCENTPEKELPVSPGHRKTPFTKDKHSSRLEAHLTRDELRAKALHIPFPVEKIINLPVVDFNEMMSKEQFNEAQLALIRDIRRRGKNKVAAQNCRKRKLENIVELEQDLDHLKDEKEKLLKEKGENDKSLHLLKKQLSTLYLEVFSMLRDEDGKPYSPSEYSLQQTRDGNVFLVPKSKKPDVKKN
Kind of experiment: Nrf2 degradation in A549 HiBiT-Nrf2 cells, Nano-Glo HiBiT lytic detection (HiBiT readout). The experiment is classed as cell-based. Further details: host or cells: A549 HiBiT-Nrf2 cells (engineered line bought from Promega). How it is done:
A549 HiBiT-Nrf2 cells (Promega, Cat. No. CS3023219) were seeded into 384-well plates at cell density of 5,000 cells/well in 40 μL of cell culture medium (Ham's F-12 Nutrient Mix supplemented with 10% FBS and 1% antibiotic-antimycotic).
The next day, cells were treated with representative Compounds of the Disclosure and incubated for 6 h and 20 h at 37° C., 5% CO2. Staurosporine was used as a control.
At the end of incubation Nrf2 degradation (HiBiT readout) and cell viability (CellTiter-Glo readout) were determined. For HiBiT readout, Nano-Glo HiBiT Reagent mix (Promega, Cat. No. N3050) was added to wells, plates were incubated 2 min on an orbital shaker and incubated at room temperature in the dark for additional 30 minutes. At the end of incubation luminescence was measured using ultrasensitive luminescence mode (Envision, Perkin Elmer).

In a further experiment the test system is A549. Kind of experiment: Cancer cell viability, A549 (CellTiter-Glo). It is filed as cell-based. The conditions noted are these: Homo sapiens, 72 h, A549 cells, 3 days, read-out: Cellular IC50 (μM) A549. How it is done: Representative Compounds of the Disclosure were tested in A549 (Vendor: ATCC; Cat #CCL-185; Description: lung, carcinoma) and/or LK-2 (Vendor: Riken; Cat #RCB1970; Description: lung, squamous cell carcinoma) cellular viability assays according to the following general protocol. • 1. Observed the cells under microscope. • 2. Aspirated the media and added 5 mL trypsin and incubate for 3 mins. • 3. Added 10 mL fresh media and harvested all the cells in to 15 mL tubes. • 4. Centrifuged the cells at 1000 rpm for 5 mins. • 5. Re-suspended the cells with 11 mL media and took 1 mL to determine the cell number and viability. • 6. Prepared cells suspension at 20 K/mL (A549) or 35 K/mL (LK-2) • 7. Seeded the cells into 96-well plate and incubated for overnight. • 8. […] After 3 days, took out the plates from the incubator and observed the cells under microscope. • 10. Passed a film at the bottom of the plates. • 11. Equilibrated the plate and its contents at room temperature for approximately 30 minutes. • 12. Thawed the CellTiter-Glo® Buffer and equilibrated to room temperature prior to use. • 13. Equilibrated the lyophilized CellTiter-Glo® Substrate to room temperature prior to use. • 14. Transferred 100 ml of CellTiter-Glo® Buffer into the amber bottle containing CellTiter-Glo® Substrate to reconstituted the lyophilized enzyme/substrate mixture. • 15. Mixed by gently vortexing, swirling or inverting the contents to obtain a homogeneous solution. • 16. Added 100 μL CellTiter-Glo® Reagent into each well • 17. Mixed contents for 15 minutes on an orbital shaker to induce cell lysis. • 18. Recorded luminescence with EnSpire machine. • 19. Passed the raw data into the file and analyzed the data with XLfit software.
A general note: Cellular ATP, detected with luciferase, serves as a proxy for viable cell number.

Setting [1] is: 6 h, read-out: DC50 (nM) at 6 h.
Where [2] appears, read: 20 h, read-out: DC50 (nM) at 20 h.

In the case of `Cc1sc(NC(=O)Cc2cccc(OCCC(C)CCNc3cccc4c3C(=O)N(C3CCC(=O)NC3=O)C4=O)c2)nc1-c1ccc2c(c1)CCN2C(=O)C1CC1` (stereo not drawn) [Cpd. No. 41, N-(4-(1-(cyclopropanecarbonyl)indolin-5-yl)-5-methylthiazol-2-yl)-2-(3-((5-((2-(2,6-dioxopiperidin-3-yl)-1,3-dioxoisoindolin-4-yl)amino)-3-methylpentyl)oxy)phenyl)acetamide], the DC50 at Nrf2 (setting [1]) and on Nrf2 (setting [2]) was less than 300 nM each time.

With `Cc1sc(NC(=O)Cc2cccc(OCCC(C)(C)CCNc3cccc4c3C(=O)N(C3CCC(=O)NC3=O)C4=O)c2)nc1-c1ccc2c(c1)CCN2C(=O)C1CC1` (stereo not drawn) [Cpd. No. 42, N-(4-(1-(cyclopropanecarbonyl)indolin-5-yl)-5-methylthiazol-2-yl)-2-(3-((5-((2-(2,6-dioxopiperidin-3-yl)-1,3-dioxoisoindolin-4-yl)amino)-3,3-dimethylpentyl)oxy)phenyl)acetamide], on Nrf2 (setting [1]), the DC50 (usually the concentration giving 50% degradation) is greater than 3000 nM.

On to `Cc1sc(NC(=O)Cc2cccc(OCCN(C)CCNc3cccc4c3C(=O)N(C3CCC(=O)NC3=O)C4=O)c2)nc1-c1ccc2c(c1)CCN2C(=O)C1CC1` (stereo not drawn) [Cpd. No. 44, N-(4-(1-(cyclopropanecarbonyl)indolin-5-yl)-5-methylthiazol-2-yl)-2-(3-(2-((2-((2-(2,6-dioxopiperidin-3-yl)-1,3-dioxoisoindolin-4-yl)amino)ethyl)(methyl)amino)ethoxy)phenyl)acetamide], for which the DC50 on Nrf2 (setting [1]) and at Nrf2 (setting [2]) was less than 300 nM throughout.

With `Cc1sc(NC(=O)Cc2cccc(OCCC(C)CCOc3cccc4c3C(=O)N(C3CCC(=O)NC3=O)C4=O)c2)nc1-c1ccc2c(c1)CCN2C(=O)C1CC1` (stereo not drawn) [Cpd. No. 47, N-(4-(1-(cyclopropanecarbonyl)indolin-5-yl)-5-methylthiazol-2-yl)-2-(3-((5-((2-(2,6-dioxopiperidin-3-yl)-1,3-dioxoisoindolin-4-yl)oxy)-3-methylpentyl)oxy)phenyl)acetamide], the DC50 on Nrf2 (setting [1]) and on Nrf2 (setting [2]) was 300 to 3000 nM each time.

As to `Cc1sc(NC(=O)Cc2cccc(OCCC(C)(C)CCOc3cccc4c3C(=O)N(C3CCC(=O)NC3=O)C4=O)c2)nc1-c1ccc2c(c1)CCN2C(=O)C1CC1` (stereo not drawn) [Cpd. No. 48, N-(4-(1-(cyclopropanecarbonyl)indolin-5-yl)-5-methylthiazol-2-yl)-2-(3-((5-((2-(2,6-dioxopiperidin-3-yl)-1,3-dioxoisoindolin-4-yl)oxy)-3,3-dimethylpentyl)oxy)phenyl)acetamide], the DC50 at Nrf2 (setting [1]) was greater than 3000 nM; at Nrf2 (setting [2]), 300 to 3000 nM.

As to `Cc1sc(NC(=O)Cc2cccc(OCCC(C)(C)CCNc3ccc4c(c3)C(=O)N(C3CCC(=O)NC3=O)C4=O)c2)nc1-c1ccc2c(c1)CCN2C(=O)C1CC1` (stereo not drawn) [Cpd. No. 51, N-(4-(1-(cyclopropanecarbonyl)indolin-5-yl)-5-methylthiazol-2-yl)-2-(3-((5-((2-(2,6-dioxopiperidin-3-yl)-1,3-dioxoisoindolin-5-yl)amino)-3,3-dimethylpentyl)oxy)phenyl)acetamide], the DC50 at Nrf2 (setting [1]) and at Nrf2 (setting [2]) was less than 300 nM each time.

`Cc1sc(NC(=O)Cc2cccc(OCCCCNc3cccc4c3C(=O)N(C3CCC(=O)NC3=O)C4=O)c2)nc1-c1ccc2c(c1)CCN2C(=O)C1CC1` (stereo not drawn) [Cpd. No. 65, N-(4-(1-(cyclopropanecarbonyl)indolin-5-yl)-5-methylthiazol-2-yl)-2-(3-(4-((2-(2,6-dioxopiperidin-3-yl)-1,3-dioxoisoindolin-4-yl)amino)butoxy)phenyl)acetamide]: the DC50 at Nrf2 (setting [1]) and at Nrf2 (setting [2]) was less than 300 nM throughout. For the same compound, the IC50 (as a rule, the concentration that inhibits the measured activity by half) in the experiment with A549 was 0.12 µM.

Turning to `Cc1sc(NC(=O)Cc2cccc(OCCCCCCNc3cccc4c3C(=O)N(C3CCC(=O)NC3=O)C4=O)c2)nc1-c1ccc2c(c1)CCN2C(=O)C1CC1` (stereo not drawn) [Cpd. No. 66, N-(4-(1-(cyclopropanecarbonyl)indolin-5-yl)-5-methylthiazol-2-yl)-2-(3-((6-((2-(2,6-dioxopiperidin-3-yl)-1,3-dioxoisoindolin-4-yl)amino)hexyl)oxy)phenyl)acetamide], the DC50 on Nrf2 (setting [1]) is 300 to 3000 nM; on Nrf2 (setting [2]) it was less than 300 nM. Besides, the IC50 in the experiment on A549 came to 0.16 µM.

Regarding `Cc1sc(NC(=O)Cc2cccc(OCCOCCNc3cccc4c3C(=O)N(C3CCC(=O)NC3=O)C4)c2)nc1-c1ccc2c(c1)CCN2C(=O)C1CC1` (stereo not drawn) [Cpd. No. 81, N-(4-(1-(cyclopropanecarbonyl)indolin-5-yl)-5-methylthiazol-2-yl)-2-(3-(2-(2-((2-(2,6-dioxopiperidin-3-yl)-3-oxoisoindolin-4-yl)amino)ethoxy)ethoxy)phenyl) acetamide], the IC50 in the experiment on A549 is greater than 30 µM.

`Cc1sc(NC(=O)Cc2cccc(OCCC(C)CCNc3ccc4c(c3)C(=O)N(C3CCC(=O)NC3=O)C4=O)c2)nc1-c1ccc2c(c1)CCN2C(=O)C1CC1` (stereo not drawn) [compound 50, N-(4-(1-(cyclopropanecarbonyl)indolin-5-yl)-5-methylthiazol-2-yl)-2-(3-((5-((2-(2,6-dioxopiperidin-3-yl)-1,3-dioxoisoindolin-5-yl)amino)-3-methylpentyl)oxy)phenyl)acetamide]: the DC50 at Nrf2 (setting [1]) and at Nrf2 (setting [2]) was 300 to 3000 nM each time.

As to `Cc1ncccc1C(=O)N1CCc2cc(-c3nc(NC(=O)Cc4cccc(OCCCCCNc5cccc6c5C(=O)N(C5CCC(=O)NC5=O)C6=O)c4)sc3C)ccc21` (stereo not drawn) [compound 83, 2-(3-((5-((2-(2,6-dioxopiperidin-3-yl)-1,3-dioxoisoindolin-4-yl)amino)pentyl)oxy)phenyl)-N-(5-methyl-4-(1-(2-methylnicotinoyl)indolin-5-yl)thiazol-2-yl)acetamide], in the experiment with A549, the IC50 turned out to be 0.045 µM.

`Cc1cnccc1C(=O)N1CCc2cc(-c3nc(NC(=O)Cc4cccc(OCCCCCNc5cccc6c5C(=O)N(C5CCC(=O)NC5=O)C6=O)c4)sc3C)ccc21` (stereo not drawn) [compound 84, 2-(3-((5-((2-(2,6-dioxopiperidin-3-yl)-1,3-dioxoisoindolin-4-yl)amino)pentyl)oxy)phenyl)-N-(5-methyl-4-(1-(3-methylisonicotinoyl)indolin-5-yl)thiazol-2-yl)acetamide]: the IC50 with A549 was found to be 0.046 µM.

Take `Cc1ccncc1C(=O)N1CCc2cc(-c3nc(NC(=O)Cc4cccc(OCCCCCNc5cccc6c5C(=O)N(C5CCC(=O)NC5=O)C6=O)c4)sc3C)ccc21` (stereo not drawn) [compound 85, 2-(3-((5-((2-(2,6-dioxopiperidin-3-yl)-1,3-dioxoisoindolin-4-yl)amino)pentyl)oxy)phenyl)-N-(5-methyl-4-(1-(4-methylnicotinoyl)indolin-5-yl)thiazol-2-yl)acetamide]: the IC50 in the experiment on A549 is 0.047 µM.

For the compound `Cc1cccnc1C(=O)N1CCc2cc(-c3nc(NC(=O)Cc4cccc(OCCCCCNc5cccc6c5C(=O)N(C5CCC(=O)NC5=O)C6=O)c4)sc3C)ccc21` (stereo not drawn) [compound 86, 2-(3-((5-((2-(2,6-dioxopiperidin-3-yl)-1,3-dioxoisoindolin-4-yl)amino)pentyl)oxy)phenyl)-N-(5-methyl-4-(1-(3-methylpicolinoyl)indolin-5-yl)thiazol-2-yl)acetamide], the IC50 in the experiment on A549 was 0.072 µM.
